Results published in ChEMBL document CHEMBL1135513 (J Med Chem, 2002).

How the values were obtained:
[1] = molecular target: T1, GABA-A receptor; alpha-1/beta-2/gamma-2 (Homo sapiens, UniProt P14867+P18507+P47870); assay: Potentiation of GABA responses at human Gamma-aminobutyric acid A receptor alpha-1-beta-2-gamma-2; format: protein-complex assay
T1 sequence (P14867 whole entry): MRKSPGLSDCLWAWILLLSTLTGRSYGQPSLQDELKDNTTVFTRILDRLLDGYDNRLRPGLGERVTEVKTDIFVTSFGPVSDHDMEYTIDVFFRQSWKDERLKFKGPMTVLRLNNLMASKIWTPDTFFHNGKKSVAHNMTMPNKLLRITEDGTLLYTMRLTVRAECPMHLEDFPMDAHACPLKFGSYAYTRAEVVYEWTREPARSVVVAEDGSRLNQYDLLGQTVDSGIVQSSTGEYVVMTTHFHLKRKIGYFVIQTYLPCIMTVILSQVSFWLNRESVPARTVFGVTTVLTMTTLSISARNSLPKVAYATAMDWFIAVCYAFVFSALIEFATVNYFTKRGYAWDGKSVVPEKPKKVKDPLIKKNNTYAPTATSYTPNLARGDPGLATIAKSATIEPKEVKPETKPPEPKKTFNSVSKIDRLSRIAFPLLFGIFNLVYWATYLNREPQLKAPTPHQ
T1 sequence (P47870 whole entry): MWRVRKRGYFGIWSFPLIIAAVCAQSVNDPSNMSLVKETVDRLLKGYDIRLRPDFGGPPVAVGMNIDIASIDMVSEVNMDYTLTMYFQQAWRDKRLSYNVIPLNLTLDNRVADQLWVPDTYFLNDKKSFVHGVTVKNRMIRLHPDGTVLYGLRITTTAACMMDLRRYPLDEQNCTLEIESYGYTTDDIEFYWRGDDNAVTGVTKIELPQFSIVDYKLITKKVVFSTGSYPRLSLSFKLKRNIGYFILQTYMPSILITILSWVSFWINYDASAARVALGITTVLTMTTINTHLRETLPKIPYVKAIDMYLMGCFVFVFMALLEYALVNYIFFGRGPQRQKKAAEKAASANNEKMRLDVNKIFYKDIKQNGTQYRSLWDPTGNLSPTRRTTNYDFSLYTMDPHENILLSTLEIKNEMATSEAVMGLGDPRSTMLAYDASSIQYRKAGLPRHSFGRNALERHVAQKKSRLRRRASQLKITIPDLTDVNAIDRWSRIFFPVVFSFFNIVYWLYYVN
T1 sequence (P18507 whole entry): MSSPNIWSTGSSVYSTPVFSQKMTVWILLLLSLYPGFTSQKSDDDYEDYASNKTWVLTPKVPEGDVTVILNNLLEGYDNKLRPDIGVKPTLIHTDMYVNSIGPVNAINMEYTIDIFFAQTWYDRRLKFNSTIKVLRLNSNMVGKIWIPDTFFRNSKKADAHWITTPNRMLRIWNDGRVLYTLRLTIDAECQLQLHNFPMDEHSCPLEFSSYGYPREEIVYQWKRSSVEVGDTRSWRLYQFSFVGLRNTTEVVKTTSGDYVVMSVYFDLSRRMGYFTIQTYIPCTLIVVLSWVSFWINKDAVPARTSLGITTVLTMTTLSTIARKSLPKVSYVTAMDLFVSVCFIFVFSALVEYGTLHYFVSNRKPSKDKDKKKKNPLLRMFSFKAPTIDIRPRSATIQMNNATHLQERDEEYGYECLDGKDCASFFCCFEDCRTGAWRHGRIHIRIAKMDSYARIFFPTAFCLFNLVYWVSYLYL

[2] = system: Xenopus laevis; assay: Loss of righting reflex (LORR) in tadpoles was determined for anesthetic activity; format: functional, organism-based, frog; details: Tadpole
[3] = molecular target: T1, GABA-A receptor; alpha-1/beta-2/gamma-2; assay: Direct activation of human Gamma-aminobutyric acid A receptor alpha-1-beta-2-gamma-2; format: protein-complex assay
[4] = system: Xenopus laevis; assay: Loss of righting reflex (LORR) in Xenopus laevis tadpoles was determined for anesthetic activity; format: functional, organism-based, frog; details: Tadpole

Compound	EC50 [1] [µM]	EC50 [2] [µM]	EC50 [3] [µM]	EC50 [4] [µM]
Oc1c(C2CCCCC2)cccc1C1CCCCC1	100000	–	–	–
CC(C)Cc1cccc(CC(C)C)c1O	2.51	0.398	20	–
CCc1cccc(CC)c1N=C=S	15.8	158	316	–
Oc1ccccc1C1CCCC1	100000	–	–	–
CCc1cccc(CC)c1N=C=O	25.1	158	251	–
CC(C)c1cc(O)c(O)c(C(C)C)c1	39.8	50.1	200	–
CCc1cccc(CC)c1Br	20	158	126	–
Cc1cccc(C(C)(C)C)c1O	0.501	31.6	20	–
CCc1cccc(CC)c1O	12.6	20	126	–
CC(C)c1ccccc1O	39.8	126	158	–
Cc1cccc(C)c1O	126	63.1	200	–
CC(C)(C)c1cc(O)cc(C(C)(C)C)c1	100	100	501	–
CC(C)c1cc(I)cc(C(C)C)c1O	10	–	31.6	2.51
Oc1ccccc1 [PHENOL]	1000	1580	–	–
CC(C)c1cccc(C(C)C)c1O [PROPOFOL]	2	2	10	–
COc1cccc(OC)c1O [SYRINGOL]	100000	–	–	–
